“And” between values parts separate entries of the source, which are not always exact repeats. Equal values may be shown once.
The compounds below were run against T1, Human ATX protein (Homo sapiens, UniProt Q13822) (assay: ATX biochemical assay (FRET, FS-3 substrate)). Conditions: FRET assay, FS-3 2 μM, ATX 1.0 μg/mL, 30 minutes preincubation, 2 hours reaction at room temperature; read-out: IC50.
T1 construct: made in house
Description: ATX (Autotaxin) is a 125 KDa glycoprotein with lysophospholipase D (LPLD) activity that generates the bioactive lipid lysophosphatidic acid (LPA) from lysophosphatidylcholine (LPC). The ATX biochemical assay utilizes a FRET (fluorescence resonance energy transfer) technology platform. The fluorescence signal of FRET substrate FS-3 is quenched due to intra-molecular FRET of a fluorophore to a non-fluorescing quencher (Ferguson, C. G., et al., Org Lett. 2006 May 11; 8(10): 2023-2026, which is incorporated by reference in its entirety). ATX catalyzes the hydrolysis of the substrate which separates the dabsyl quencher from the fluorescein reporter, which becomes fluorescent. The reaction is monitored by a SpectraMax M5 (Molecular Devices, Sunnyvale, Calif.) with at excitation wavelength 485 nm and emission wavelength […].
Fatty acid free-BSA (Sigma A8806): 10 mg/mL in H2O, stored at 4° C.
2×ATX assay buffer: 100 mM Tris, 280 mM NaCl, 10 mM KCl, 2 mM CaCl2, 2 mM MgCl2, pH 7.4.
Human ATX protein: expressed and purified in house. Stored at −80° C.
Substrate FS-3 (Echelon, L-2000): 100 μg in 77.74 μL H2O (1 mM stock), stored at −20° C.
384-well flat bottom plates—Corning #3575.
Compound dilution—All compounds were provided at 10 mM in 100% DMSO. In the first well, 2 μL of 10 mM compound was added to 78 μL of DMSO (1:40 dilution). In subsequent wells 3-fold dilution (total 10 dilutions) were performed.
1×ATX assay buffer was made up with a final concentration of 1 mg/mL fatty acid free-BSA using 2×ATX assay buffer, 10 mg/ml fatty acid free-BSA and ddH2O.
[…]. The final concentration of ATX in the reaction as 1.0 μg/mL.
2 μL per well of compounds was transferred to provide the desired concentration. The plate was centrifuged, then incubated at room temperature for 30 minutes on the shaker.
FS-3 was diluted with 1×ATX assay buffer to a concentration of FS-3 of 10 μM (5×). Then, 10 μL was added per well to the assay plate. The final concentration of FS-3 in the reaction was 2 μM. The plate was centrifuged. The plate was kept shaking at room temperature for 2 hours. Because FS-3 substrate is light sensitive, plates were kept covered and protected from light.
Fluorescence was measured using SpectraMax M5 (excitation at 485 nm/emission at 538 nm, top read).
`O=C(O)C1CCC(CC(=O)N2CCc3c(C(F)(F)F)nn(Cc4cccc(F)c4)c3C2)CC1` (mixture of isomers) [Example 6-1, 4-(2-(1-(3-Fluorobenzyl)-3-(trifluoromethyl)-4,5-dihydro-1H-pyrazolo[3,4-c]pyridin-6(7H)-yl)-2-oxoethyl)cyclohexanecarboxylic acid] was tested, and the IC50 was at most 100 nM.
`O=C(O)C1CCC(CC(=O)N2CCc3c(C(F)(F)F)nn(Cc4ccc(C(F)(F)F)cc4)c3C2)CC1` (mixture of isomers) [Example 6-2, 4-(2-Oxo-2-(3-(trifluoromethyl)-1-(4-(trifluoromethyl)benzyl)-4,5-dihydro-1H-pyrazolo[3,4-c]pyridin-6(7H)-yl)ethyl)cyclohexanecarboxylic acid] gave an IC50 of at most 100 nM.
`O=C(O)C1CCC(CC(=O)N2CCc3c(C(F)(F)F)nn(Cc4ccccc4F)c3C2)CC1` (mixture of isomers) [Example 6-3, 4-(2-(1-(2-Fluorobenzyl)-3-(trifluoromethyl)-4,5-dihydro-1H-pyrazolo[3,4-c]pyridin-6(7H)-yl)-2-oxoethyl)cyclohexanecarboxylic acid] gave an IC50 of at most 100 nM.
`CC1(C(=O)O)CCC(CC(=O)N2CCc3c(C(F)(F)F)nn(Cc4ccc(Cl)cc4F)c3C2)CC1` (mixture of isomers) [Example 6-5, 4-(2-(1-(4-chloro-2-fluorobenzyl)-3-(trifluoromethyl)-4,5-dihydro-1H-pyrazolo[3,4-c]pyridin-6(7H)-yl)-2-oxoethyl)-1-methylcyclohexanecarboxylic acid] gave an IC50 of at most 100 nM.
`O=C(O)C1CCC(CC(=O)N2CCc3c(C(F)(F)F)nn(Cc4ccc(Cl)cc4F)c3C2)C1` (mixture of isomers) [Example 6-6, 3-(2-(1-(4-Chloro-2-fluorobenzyl)-3-(trifluoromethyl)-4,5-dihydro-1H-pyrazolo[3,4-c]pyridin-6(7H)-yl)-2-oxoethyl)cyclopentanecarboxylic acid] showed an IC50 of at most 100 nM.
With `O=C(O)C1CCC(CC(=O)N2CCc3c(C(F)(F)F)nn(Cc4ccc(F)cc4)c3C2)C1` (mixture of isomers) [Example 6-7, 3-(2-(1-(4-Fluorobenzyl)-3-(trifluoromethyl)-4,5-dihydro-1H-pyrazolo[3,4-c]pyridin-6(7H)-yl)-2-oxoethyl)cyclopentanecarboxylic acid] the IC50 was at most 100 nM.
`O=C(O)C1CC(CC(=O)N2CCc3c(C(F)(F)F)nn(Cc4ccc(Cl)cc4F)c3C2)C1` (mixture of isomers) [Example 6-8, 3-(2-(1-(4-Chloro-2-fluorobenzyl)-3-(trifluoromethyl)-4,5-dihydro-1H-pyrazolo[3,4-c]pyridin-6(7H)-yl)-2-oxoethyl)cyclobutanecarboxylic acid] gave an IC50 of at most 100 nM.
For `O=C(O)C1CC(CC(=O)N2CCc3c(C(F)(F)F)nn(Cc4ccc(F)cc4)c3C2)C1` (mixture of isomers) [Example 6-9, 3-(2-(1-(4-Fluorobenzyl)-3-(trifluoromethyl)-4,5-dihydro-1H-pyrazolo[3,4-c]pyridin-6(7H)-yl)-2-oxoethyl)cyclobutanecarboxylic acid], the IC50 was at most 100 nM.
Work on `O=C(O)C1CC2CCC(C1)C2CC(=O)N1CCc2c(C(F)(F)F)nn(Cc3ccc(Cl)cc3F)c2C1` (mixture of isomers) [Example 6-10, 8-(2-(1-(4-Chloro-2-fluorobenzyl)-3-(trifluoromethyl)-4,5-dihydro-1H-pyrazolo[3,4-c]pyridin-6(7H)-yl)-2-oxoethyl)bicyclo[3.2.1]octane-3-carboxylic acid] yielded an IC50 of at most 100 nM.
In the case of `CC1(C)C(CC(=O)N2CCc3c(C(F)(F)F)nn(Cc4ccc(Cl)cc4F)c3C2)CC1C(=O)O` (mixture of isomers) [Example 6-14, 3-(2-(1-(4-Chloro-2-fluorobenzyl)-3-(trifluoromethyl)-4,5-dihydro-1H-pyrazolo[3,4-c]pyridin-6(7H)-yl)-2-oxoethyl)-2,2-dimethylcyclobutanecarboxylic acid], the IC50 is reported as at most 100 nM.
Compound `CC1(C)C(CC(=O)N2CCc3c(C(F)(F)F)nn(Cc4ccc(F)cc4)c3C2)CC1C(=O)O` (mixture of isomers) [Example 6-15, 3-(2-(1-(4-Fluorobenzyl)-3-(trifluoromethyl)-4,5-dihydro-1H-pyrazolo[3,4-c]pyridin-6(7H)-yl)-2-oxoethyl)-2,2-dimethylcyclobutanecarboxylic acid] has an IC50 of at most 100 nM.
With `O=C(O)C1CCC(CC(=O)N2CCc3c(C(F)(F)F)nn(CC4CCCCC4)c3C2)CC1` (single isomer, unassigned) [Example 7-13, 4-(2-(1-(cyclohexylmethyl)-3-(trifluoromethyl)-4,5-dihydro-1H-pyrazolo[3,4-c]pyridin-6(7H)-yl)-2-oxoethyl)cyclohexanecarboxylic acid] the IC50 was at most 100 nM.
For `O=C(O)C1CCC(CC(=O)N2CCc3cnn(Cc4ccc(F)cc4)c3C2)CC1` (single isomer, unassigned) [Example 7-15, 4-(2-(1-(4-Fluorobenzyl)-4,5-dihydro-1H-pyrazolo[3,4-c]pyridin-6(7H)-yl)-2-oxoethyl)cyclohexanecarboxylic acid], the IC50 was at most 100 nM.
`O=C(O)C1CCC(CC(=O)N2CCc3c(C(F)(F)F)nn(-c4ccccc4)c3C2)CC1` (stereo in doubt) [Example 5-21, cis-4-(2-Oxo-2-(1-phenyl-3-(trifluoromethyl)-4,5-dihydro-1H-pyrazolo[3,4-c]pyridin-6(7H)-yl)ethyl)cyclohexanecarboxylic acid] was tested, and the IC50 was > 500 nM and ≤ 10000 nM.
Compound `N#Cc1ccc(Cn2nc(C(F)(F)F)c3c2CN(C(=O)C[C@H]2CC[C@@H](C(=O)O)CC2)CC3)cc1` (stereo in doubt) [Example 5-35, cis-4-(2-(1-(4-Cyanobenzyl)-3-(trifluoromethyl)-4,5-dihydro-1H-pyrazolo[3,4-c]pyridin-6(7H)-yl)-2-oxoethyl)cyclohexanecarboxylic acid] has an IC50 of at most 100 nM.
Work on `CCOC(=O)C1CCC(CC(=O)N2CCc3c(C(F)(F)F)nn(Cc4ccc(F)cc4)c3C2)CC1` (centres unmarked) [Example 1-1, Ethyl 4-(2-(1-(4-fluorobenzyl)-3-(trifluoromethyl)-4,5-dihydro-1H-pyrazolo[3,4-c]pyridin-6 (7H)-yl)-2-oxoethyl)cyclohexanecarboxylate] yielded an IC50 of at most 100 nM.
`CN1CCC(CC(=O)N2CCc3c(C(F)(F)F)nn(Cc4ccc(Cl)cc4F)c3C2)CC1` [Example 1-2, 1-(1-(4-Chloro-2-fluorobenzyl)-3-(trifluoromethyl)-4,5-dihydro-1H-pyrazolo[3,4-c]pyridin-6(7H)-yl)-2-(1-methylpiperidin-4-yl)ethanone] was tested, and the IC50 was at most 100 nM.
In the case of `O=C(Cc1ccccc1)N1CCc2c(C(F)(F)F)nn(Cc3ccc(Cl)cc3F)c2C1` [Example 1-3, 1-(1-(4-Chloro-2-fluorobenzyl)-3-(trifluoromethyl)-4,5-dihydro-1H-pyrazolo[3,4-c]pyridin-6(7H)-yl)-2-phenylethanone], the IC50 is reported as at most 100 nM.
`CCOC(=O)C1CCC(CC(=O)N2CCc3cnn(Cc4ccc(Cl)cc4F)c3C2)CC1` (centres unmarked) [Example 1-4, Ethyl 4-(2-(1-(4-chloro-2-fluorobenzyl)-4,5-dihydro-1H-pyrazolo[3,4-c]pyridin-6(7H)-yl)-2-oxoethyl)cyclohexanecarboxylate] gave an IC50 of at most 100 nM.
For `O=C(CC1CCCCC1)N1CCc2c(C(F)(F)F)nn(Cc3ccc(Cl)cc3F)c2C1` [Example 1-5, 1-(1-(4-Chloro-2-fluorobenzyl)-3-(trifluoromethyl)-4,5-dihydro-1H-pyrazolo[3,4-c]pyridin-6(7H)-yl)-2-cyclohexylethanone], the IC50 was at most 100 nM.

Reference: patent publication US10144732B2 (BIOGEN MA INC., priority 2014, dated 2018)
